# Assay results: patent US4016176A, “Esters of 4-hydroxy-2,9-dioxatricyclo[4.3.1.0^3,7 ] decanes and processes for their production” (Kali-Chemie Pharma GmbH, priority 1973, dated 1977)
# Read-outs that look alike come from different tables or passages of the source.
# What was measured:
# [1] = system: mouse; assay: ataxia in mice; assay type: in vivo
# Text: (§1) In the Table 3 which follows are listed results of tests pertaining to the effectiveness of various compounds that are disclosed herein. The results are included in the several columns under letters whose significance is as follows:
# C - ataxia: Dose in milligrams per kilogram of body weight required to produce ataxia in a mouse.
# [2] = acute toxicity (LD50) in mice; assay type: in vivo, mouse; details: mouse, in vivo, mouse
# Text: as §1
# (§2) A - lethal dose (LD50) to mice in milligrams per kilogram of body weight of the mouse when administered per os.
# (§3) B - lethal dose (LD50) to mice in milligrams per kilogram of body weight of the mouse when administered intraperitoneally.
# (§4) A. lethal dose (LD50) to mice in milligrams per kilogram body weight of the mouse when administered per os.
# (§5) B. lethal dose (LD50) to mice in milligrams per kilogram body weight of the mouse administered intraperitoneally.
# (§6) The values specified in Tables 4 and 5 hereinafter refer to milligrams per kilogram of body weight of the mouse.
# (§7) Tests performed in accordance with the procedure described by Campbell and Richter in Acta Pharmacol. et Toxicol., vol. […] This is indicated by the results that are reported in Table 5 in which the headings A and F have the same significance as hereinbefore while the values in the column heading L pertain to the dose in milligrams per kilogram of body weight that was required to produce a lowering of the rectal temperature, which are values indicative of the depressant effect of a compound upon the central nervous system.
# [3] = system: mouse; assay: prolongation of narcosis produced by hexobarbital in mice; assay type: in vivo; details: for E - dose which prolongs narcosis produced by hexobarbital in a mouse by a factor of 4: factor of 4, Table 3; for prolongation of narcosis produced by hexobarbital (in words): comparison of epimers
# Text: (§8) In the Table 3 which follows are listed results of tests pertaining to the effectiveness of various compounds that are disclosed herein.
# [4] = system: mouse; assay: lowering of the rectal temperature in mice; assay type: in vivo; details: for minimal effective dose: mouse, Table 5, read-out: L dose required to produce a lowering of the rectal temperature; for dose required to produce a lowering of the rectal temperature, relative to the 4-hydroxy compound (in words): compared with Compound No. 2090
# Text: as §6, §7
# [5] = system: white mice; assay: ptosis test (Campbell and Richter screening); assay type: in vivo, mouse; details: for F ptosis test: mouse, Table 5
# Text: (§9) The sedative and hypnotic effectiveness of the compounds of the invention were also ascertained by screening tests with white mice described by Campbell and Richter in Acta Pharmacol. et Toxicol. 25 (1967) page 345. In Table 4 the results of various specific screening tests are listed. These tests were as follows:
# as §6, §7
# [6] = system: mice; assay: acute toxicity (LD50) in mice; assay type: in vivo, mouse; details: mouse; for B - lethal dose (LD50) to mice, intraperitoneally: intraperitoneal; for B - lethal dose (LD50) to mice, intraperitoneally / A - lethal dose (LD50) to mice, per os: Table 3
# Text: as §1, §2, §3, §4, §5, §6, §7
# [7] = system: mice; assay: narcosis (lateral position) in mice; assay type: in vivo, mouse; details: for ED50: ip, 0.05 h, read-out: D - narcosis (lateral position): dose (ED50) which produces narcosis for 3 minutes in 50% of the mice; for narcosis (in words): comparison of epimers
# Text: as §8
# [8] = system: white mice; assay: climbing test (Campbell and Richter screening); assay type: in vivo; details: mouse; Table 4; read-out: J. climbing test (ED50)
# Text: as §9, §6
# [9] = system: white mice; assay: balance bar test (Campbell and Richter screening); assay type: in vivo; details: mouse; Table 4; read-out: K. balance bar test (ED50)
# Text: as §9
# K. balance bar test (ED50).
# as §6
# [10] = ip, intraperitoneal, Table 3, read-out: B - lethal dose (LD50) to mice, intraperitoneally
# [11] = po, per os, Table 3, read-out: A - lethal dose (LD50) to mice, per os
# [12] = po, per os, Table 5, read-out: A lethal dose (LD50) to mice, per os
# [13] = ip, intraperitoneal, Table 4, read-out: B. lethal dose (LD50) to mice, intraperitoneally
# [14] = po, per os, Table 4, read-out: A. lethal dose (LD50) to mice, per os
smiles,measurement,setting,value
"C=C1C2OC(OC)C3C1CC(O)C3(C)O2 (stereo not drawn) [Compound No. 981, 4β-hydroxy-8-methoxy-3-methyl-10-methylene-2,9-dioxatricyclo[4.3.1.0^3,7]decane]",C - ataxia: dose required to produce ataxia in a mouse,"[1]; mouse, Table 3",200 milligrams per kilogram of bod
same,LD50,[2]; [10],600 mg/kg
same,LD50,[2]; [11],610 mg/kg
same,E - dose which prolongs narcosis produced by hexobarbital in a mouse by a factor of 4,[3],100 milligrams per kilogram of bod
"COC1OC2OC3(C)C(O)CC(C2C)C13 (stereo not drawn) [Compound No. 1246, 4β-hydroxy-3,10-dimethyl-8-methoxy-2,9-dioxatricyclo[4.3.1.0^3,7]decane]",C - ataxia: dose required to produce ataxia in a mouse,"[1]; mouse, Table 3",800 milligrams per kilogram of bod
same,LD50,[2]; [10],1200 mg/kg
same,LD50,[2]; [11],> 1500 mg/kg
same,E - dose which prolongs narcosis produced by hexobarbital in a mouse by a factor of 4,[3],68 milligrams per kilogram of bod
"COC1OC2OC3(C)C(O)CC(C2C)C13 (stereo not drawn) [Compound No. 1561, 4α-Hydroxy-8-methoxy-3,10-dimethyl-2,9-dioxatricyclo[4.3.1.0^3,7]decane]",C - ataxia: dose required to produce ataxia in a mouse,"[1]; mouse, Table 3",200 milligrams per kilogram of bod
same,minimal effective dose,[4],100 mg/kg
same,F ptosis test,[5],100 milligrams per kilogram of bod
same,"B - lethal dose (LD50) to mice, intraperitoneally",[6],1600 milligrams per kilogram of bod
same,"A - lethal dose (LD50) to mice, per os",[6],> 1500 milligrams per kilogram of bod
same,LD50,[2]; [12],> 1500 mg/kg
same,ED50,[7]; Mus musculus,800 mg/kg
same,E - dose which prolongs narcosis produced by hexobarbital in a mouse by a factor of 4,[3],68 milligrams per kilogram of bod
COC1OC2OC3(C)C(OC(=O)NC(C)C)CC(C2C)C13 (stereo not drawn) [Compound No. 2065],ratio between effective and lethal doses (in words),"[1]; 2065 versus 2057, ataxia",remains constant
same,increase in effectiveness in producing ataxia,[1]; 2065 versus epimer 2057,ten-fold increase in effectiveness
same,dose required for producing ataxia,[1]; mouse,12 milligrams per kilogram of body weight
same,C - ataxia: dose required to produce ataxia in a mouse,"[1]; mouse, Table 3",12 milligrams per kilogram of bod
same,"B - lethal dose (LD50) to mice, intraperitoneally",[6],118 milligrams per kilogram of bod
same,"A - lethal dose (LD50) to mice, per os",[6],156 milligrams per kilogram of bod
same,ED50,"[7]; mouse, intraperitoneal, narcosis for 3 minutes, Table 3",46.4 mg/kg
same,narcosis (in words),[7]; mouse,produces a very strong narcosis
same,prolongation of narcosis produced by hexobarbital (in words),[3],prolongation of narcosis produced by hexobarbital
same,E - dose which prolongs narcosis produced by hexobarbital in a mouse by a factor of 4,[3],31.6 milligrams per kilogram of bod
C=C1C2OC(OC)C3C1CC(OC(=O)NCC)C3(C)O2 (stereo not drawn) [Compound No. 2067],minimal effective dose,"[1]; Mus musculus, read-out: C - ataxia: dose required to produce ataxia in a mouse, mouse, Table 3",50 mg/kg
same,doses effective in producing ataxia (in words),"[1]; mouse, 2067 versus 2076",identical doses are effective in producing ataxia
same,toxicity of the epimers (in words),[6]; 2067 versus 2076,substantially the same toxicity
same,LD50,[2]; [10],390 mg/kg
same,LD50,[2]; [11],872 mg/kg
same,narcosis (in words),[7]; mouse,does not produce narcosis
same,prolongation of narcosis produced by hexobarbital (in words),[3],prolongs narcosis produced by hexobarbital
same,E - dose which prolongs narcosis produced by hexobarbital in a mouse by a factor of 4,[3],215 milligrams per kilogram of bod
"C=C1C2OC(OC)C3C1CC(O)C3(C)O2 (stereo not drawn) [Compound No. 2090, 4α-Hydroxy-8-methoxy-3-methyl-10-methylene-2,9-dioxatricyclo[4.3.1.0^3,7] decane]",C - ataxia: dose required to produce ataxia in a mouse,"[1]; mouse, Table 3",25 milligrams per kilogram of bod
same,minimal effective dose,[4],200 mg/kg
same,F ptosis test,[5],100 milligrams per kilogram of bod
same,"B - lethal dose (LD50) to mice, intraperitoneally",[6],300 milligrams per kilogram of bod
same,"A - lethal dose (LD50) to mice, per os",[6],774 milligrams per kilogram of bod
same,ED50,[7]; Mus musculus,< 300 mg/kg
"C=C1C2OC(OC)C3C1CC(OC(C)=O)C3(C)O2 (stereo not drawn) [Compound No. 2117, 4α-Acetoxy-8-methoxy-3-methyl-10-methylene-2,9-dioxatricyclo [4.3.1.0^3,7] decane]","dose required to produce a lowering of the rectal temperature, relative to the 4-hydroxy compound (in words)",[4],smaller
same,minimal effective dose,[4],50 mg/kg
same,F ptosis test,[5],100 milligrams per kilogram of bod
same,LD50,[2]; [12],774 mg/kg
"C=C1C2OC(OC)C3C1CC(OC(=O)CC)C3(C)O2 (stereo not drawn) [Compound No. 2118, 4α-Propionyloxy-8-methoxy-3-methyl-10-methylene-2,9-dioxatricyclo[4.3.1.0^3,7]decane]","dose required to produce a lowering of the rectal temperature, relative to the 4-hydroxy compound (in words)",[4],smaller
same,minimal effective dose,[4],100 mg/kg
same,F ptosis test,[5],100 milligrams per kilogram of bod
same,LD50,[2]; [12],1140 mg/kg
"COC1OC2OC3(C)C(OC(=O)CC(C)C)CC(C2C)C13 (stereo not drawn) [Compound No. 2215, 4α-Isovaleryloxy-8-methoxy-3,10-dimethyl-2,9-dioxatricyclo[4.3.1.0^3,7]decane]",minimal effective dose,[4],200 mg/kg
same,dose producing ptosis relative to the 4-hydroxy compound (in words),[5]; compared with Compound No. 1561,one-fourth or one-half of the dose required of the 4-hydroxy-compound
same,F ptosis test,[5],50 milligrams per kilogram of bod
same,LD50,[2]; [12],> 1470 mg/kg
"C=CCNC(=O)OC1CC2C(C)C3OC(OC)C2C1(C)O3 (stereo not drawn) [Compound No. 2274, 4α-(N-Allylcarbamyloxy)-8-methoxy-3,10-dimethyl-2,9-dioxatricyclo[4.3.1.0^3,7]decane]",LD50,[2]; [13],279 mg/kg
same,LD50,[2]; [14],339 mg/kg
same,ED50,[8],75 mg/kg
same,ED50,[9],62.5 mg/kg
"C=CCNC(=O)OC1CC2C(=C)C3OC(OC)C2C1(C)O3 (stereo not drawn) [Compound No. 2286, 4α-(N-Allylcarbamyloxy)-8-methoxy-3-methyl-10-methylene-2,9-dioxatricyclo[4.3.1.0^3,7]decane]",LD50,[2]; [13],444 mg/kg
same,LD50,[2]; [14],970 mg/kg
same,ED50,[8],112 mg/kg
same,ED50,[9],50 mg/kg
